Test results reported in patent publication US10954193B2 (Vanderbilt University, priority 2013, dated 2021).

What follows are compounds tested against recombinant Mcl-1 (residues 172-327) (Homo sapiens (Human), UniProt Q07820) (assay: Bak peptide binding assay, fluorescence polarization anisotropy competition (FITC-Bak), Mcl-1). Settings: not given.
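Note: displacement of labeled Bak peptide read by fluorescence anisotropy, 10-point threefold dilutions from 20 µM top dose in 5% DMSO, 90 min incubation at room temperature.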

recombinant Mcl-1 (residues 172-327), sequence (Q07820 172-327): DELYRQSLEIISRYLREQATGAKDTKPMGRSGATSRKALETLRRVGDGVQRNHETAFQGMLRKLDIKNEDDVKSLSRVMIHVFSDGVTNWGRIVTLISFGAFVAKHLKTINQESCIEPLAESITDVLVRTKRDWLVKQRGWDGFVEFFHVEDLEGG

| SMILES | Ki [nM] |
| --- | --- |
| Cc1cc(OCCCc2cn(CCC(=O)NS(=O)(=O)c3ccccc3)c3cc(Cl)ccc23)cc(C)c1Cl [Example 37, 3-(6-chloro-3-(3-(4-chloro-3,5-dimethylphenoxy)propyl)-1H-indol-1-yl)-N-(phenylsulfonyl)propanamide] | 101 to 299 |

Same assay, conditions: Table 3, binned ranges; FITC-Bak peptide 10 nM, Mcl-1 14 nM; read-out: Ki for inhibition of Mcl-1

| Ki [nM] | SMILES |
| --- | --- |
| 501 to 999 | CCC(C(=O)O)n1cc(CCCOc2cc(C)c(Cl)c(C)c2)c2ccccc21 (racemic) [Example 52, (±)-2-(3-(3-(4-chloro-3,5-dimethylphenoxy)propyl)-1H-indol-1-yl)butanoic acid] |
| 501 to 999 | Cc1cc(OCCCc2cn(C(CC(=O)O)c3ccccc3)c3ccccc23)cc(C)c1Cl (racemic) [Example 56, (±)-3-(3-(3-(4-chloro-3,5-dimethylphenoxy)propyl)-1H-indol-1-yl)-3-phenylpropanoic acid] |
| 501 to 999 | Cc1cc(OCCCc2cn(CC(=O)O)c3ccccc23)cc(C)c1Cl [Example 5, 2-(3-(3-(4-chloro-3,5-dimethylphenoxy)propyl)-1H-indol-1-yl)acetic acid] |
| 1000 to 9990 | O=C(O)Cn1cc(CCCOc2cccc3ccccc23)c2c(Cl)cccc21 [Example 10, 2-(4-chloro-3-(3-(naphthalen-1-yloxy)propyl)-1H-indol-1-yl)acetic acid] |
| 101 to 299 | Cc1cc(OCCCc2cn(CCC(=O)O)c3cc(Cl)ccc23)cc(C)c1Cl [Example 13, 3-(6-chloro-3-(3-(4-chloro-3,5-dimethylphenoxy)propyl)-1H-indol-1-yl)propanoic acid] |
| 1000 to 9990 | Cc1cc(OCCCc2cn(CCC(=O)NS(C)(=O)=O)c3ccccc23)cc(C)c1Cl [Example 18, 3-(3-(3-(4-chloro-3,5-dimethylphenoxy)propyl)-1H-indol-1-yl)-N-(methylsulfonyl)propanamide] |
| 1000 to 9990 | CS(=O)(=O)NC(=O)CCn1cc(CCCOc2cccc3ccccc23)c2ccccc21 [Example 19, 3-(3-(3-(naphthalen-1-yloxy)propyl)-1H-indol-1-yl)-N-(methylsulfonyl)propanamide] |
| 1000 to 9990 | CS(=O)(=O)NC(=O)CCn1cc(CCCOc2cccc3ccccc23)c2c(Cl)cccc21 [Example 23, 3-(4-chloro-3-(3-(naphthalen-1-yloxy)propyl)-1H-indol-1-yl)-N-(methylsulfonyl)propanamide] |
| 1000 to 9990 | CS(=O)(=O)NC(=O)Cn1cc(CCCOc2cccc3ccccc23)c2c(Cl)cccc21 [Example 28, 2-(4-chloro-3-(3-(naphthalen-1-yloxy)propyl)-1H-indol-1-yl)-N-(methylsulfonyl)acetamide] |
| 301 to 500 | Cc1cc(OCCCc2cn(CCC(=O)O)c3c(Br)cccc23)cc(C)c1Cl [Example 29, 3-(7-bromo-3-(3-(4-chloro-3,5-dimethylphenoxy)propyl)-1H-indol-1-yl)propanoic acid] |
| 101 to 299 | Cc1cc(OCCCc2cn(CCC(=O)O)c3c(-c4c(COc5ccccc5)nn(C)c4C)cccc23)cc(C)c1Cl [Example 30, 3-(3-(3-(4-chloro-3,5-dimethylphenoxy)propyl)-7-(1,5-dimethyl-3-(phenoxymethyl)-1H-pyrazol-4-yl)-1H-indol-1-yl)propanoic acid] |
| 101 to 299 | Cc1cc(OCCCc2cn(CCC(=O)O)c3c(-c4cc[nH]n4)cccc23)cc(C)c1Cl [Example 35, 3-(3-(3-(4-chloro-3,5-dimethylphenoxy)propyl)-7-(1H-pyrazol-3-yl)-1H-indol-1-yl)propanoic acid] |
| 101 to 299 | Cc1cc(OCCCc2cn(CCC(=O)O)c3c(-c4cn[nH]c4)cccc23)cc(C)c1Cl [Example 36, 3-(3-(3-(4-chloro-3,5-dimethylphenoxy)propyl)-7-(1H-pyrazol-4-yl)-1H-indol-1-yl)propanoic acid] |
| 301 to 500 | Cc1cc(OCCCc2cn(CCC(=O)NS(=O)(=O)Cc3ccccc3)c3cc(Cl)ccc23)cc(C)c1Cl [Example 38, N-(benzylsulfonyl)-3-(6-chloro-3-(3-(4-chloro-3,5-dimethylphenoxy)propyl)-1H-indol-1-yl)propanamide] |
| 301 to 500 | Cc1cc(OCCCc2cn(CCC(=O)NS(=O)(=O)C3CC3)c3cc(Cl)ccc23)cc(C)c1Cl [Example 39, 3-(6-chloro-3-(3-(4-chloro-3,5-dimethylphenoxy)propyl)-1H-indol-1-yl)-N-(cyclopropylsulfonyl)propanamide] |
| ≤ 100 | Cc1cc(OCCCc2c(C)n(CCC(=O)NS(C)(=O)=O)c3cc(Cl)ccc23)cc(C)c1Cl [Example 46, 3-(6-chloro-3-(3-(4-chloro-3,5-dimethylphenoxy)propyl)-2-methyl-1H-indol-1-yl)-N-(methylsulfonyl)propanamide] |

More lines, now with the values behind:

| SMILES | Ki [nM] |
| --- | --- |
| Cc1cc(OCCCc2cn(C(C(=O)O)c3ccccc3)c3ccccc23)cc(C)c1Cl (racemic) [Example 53, (±)-2-(3-(3-(4-chloro-3,5-dimethylphenoxy)propyl)-1H-indol-1-yl)-2-phenylacetic acid] | 501 to 999 |
| Cc1cc(OCCCc2cn(C(C)CC(=O)O)c3ccccc23)cc(C)c1Cl (racemic) [Example 55, (±)-3-(3-(3-(4-chloro-3,5-dimethylphenoxy)propyl)-1H-indol-1-yl)butanoic acid] | 501 to 999 |
| Cc1cc(OCCCc2cn(C(C)C(=O)NS(C)(=O)=O)c3ccccc23)cc(C)c1Cl (racemic) [Example 59, (±)-2-(3-(3-(4-chloro-3,5-dimethylphenoxy)propyl)-1H-indol-1-yl)-N-(methylsulfonyl)propanamide] | 501 to 999 |
| CCC(C(=O)NS(C)(=O)=O)n1cc(CCCOc2cc(C)c(Cl)c(C)c2)c2ccccc21 (racemic) [Example 60, (±)-2-(3-(3-(4-chloro-3,5-dimethylphenoxy)propyl)-1H-indol-1-yl)-N-(methylsulfonyl)butanamide] | 501 to 999 |
| O=C(O)Cc1cn(CCCOc2cccc3ccccc23)c2ccccc12 [Example 1, 2-(1-(3-(naphthalen-1-yloxy)propyl)-1H-indol-3-yl)acetic acid] | 1000 to 9990 |
| O=C(O)Cc1cn(CCCOc2ccc3ccccc3c2)c2ccccc12 [Example 2, 2-(1-(3-(naphthalen-2-yloxy)propyl)-1H-indol-3-yl)acetic acid] | 10000 to 50000 |
| Cc1cc(OCCCn2cc(CC(=O)NS(C)(=O)=O)c3ccccc32)cc(C)c1Cl [Example 4, 2-(1-(3-(4-chloro-3,5-dimethylphenoxy)propyl)-1H-indol-3-yl)-N-(methylsulfonyl)acetamide] | 1000 to 9990 |
| O=C(O)Cn1cc(CCCOc2cccc3ccccc23)c2ccccc21 [Example 6, 2-(3-(3-(naphthalen-1-yloxy)propyl)-1H-indol-1-yl)acetic acid] | 1000 to 9990 |
| O=C(O)Cn1cc(CCCOc2cccc3ccccc23)c2ccc(Cl)cc21 [Example 8, 2-(6-chloro-3-(3-(naphthalen-1-yloxy)propyl)-1H-indol-1-yl)acetic acid] | 1000 to 9990 |
| Cc1cc(OCCCc2cn(CC(=O)O)c3cccc(Cl)c23)cc(C)c1Cl [Example 9, 2-(4-chloro-3-(3-(4-chloro-3,5-dimethylphenoxy)propyl)-1H-indol-1-yl)acetic acid] | 501 to 999 |
| O=C(O)CCn1cc(CCCOc2cccc3ccccc23)c2ccccc21 [Example 11, 3-(3-(3-(naphthalen-1-yloxy)propyl)-1H-indol-1-yl)propanoic acid] | 1000 to 9990 |
| O=C(O)CCn1cc(CCCOc2cccc3ccccc23)c2c(Cl)cccc21 [Example 16, 3-(4-chloro-3-(3-(naphthalen-1-yloxy)propyl)-1H-indol-1-yl)propanoic acid] | 1000 to 9990 |
| Cc1cc(OCC(C)Cc2cn(CCC(=O)O)c3ccccc23)cc(C)c1Cl (stereo not drawn) [Example 17, 3-(3-(3-(4-chloro-3,5-dimethylphenoxy)-2-methylpropyl)-1H-indol-1-yl)propanoic acid] | 1000 to 9990 |
| CS(=O)(=O)NC(=O)CCn1cc(CCCOc2cccc3ccccc23)c2ccc(Cl)cc21 [Example 21, 3-(6-chloro-3-(3-(naphthalen-1-yloxy)propyl)-1H-indol-1-yl)-N-(methylsulfonyl)propanamide] | 501 to 999 |
| CS(=O)(=O)NC(=O)Cn1cc(CCCOc2cccc3ccccc23)c2ccccc21 [Example 24, N-(methylsulfonyl)-2-(3-(3-(naphthalen-1-yloxy)propyl)-1H-indol-1-yl)acetamide] | 1000 to 9990 |
| Cc1cc(OCCCc2cn(CCC(=O)O)c3c(-c4ccccc4)cccc23)cc(C)c1Cl [Example 31, 3-(3-(3-(4-chloro-3,5-dimethylphenoxy)propyl)-7-phenyl-1H-indol-1-yl)propanoic acid] | 301 to 500 |
| Cc1cc(OCCCc2cn(CCC(=O)O)c3c(-c4cccnc4)cccc23)cc(C)c1Cl [Example 33, 3-(3-(3-(4-chloro-3,5-dimethylphenoxy)propyl)-7-(pyridin-3-yl)-1H-indol-1-yl)propanoic acid] | 501 to 999 |
| Cc1cc(OCCCc2cn(CCC(=O)NS(=O)(=O)c3ccc(Oc4ccccc4)cc3)c3cc(Cl)ccc23)cc(C)c1Cl [Example 40, 3-(6-chloro-3-(3-(4-chloro-3,5-dimethylphenoxy)propyl)-1H-indol-1-yl)-N-((4-phenoxyphenyl)sulfonyl)propanamide] | 301 to 500 |
| COc1ccc(Oc2ccc(S(=O)(=O)NC(=O)CCn3cc(CCCOc4cc(C)c(Cl)c(C)c4)c4ccc(Cl)cc43)cc2)cc1 [Example 41, 3-(6-chloro-3-(3-(4-chloro-3,5-dimethylphenoxy)propyl)-1H-indol-1-yl)-N-((4-(4-methoxyphenoxy)phenyl)sulfonyl)propanamide] | 101 to 299 |
| Cc1cc(OCCCc2c(C#N)n(CCC(=O)O)c3ccccc23)cc(C)c1Cl [Example 48, 3-(3-(3-(4-chloro-3,5-dimethylphenoxy)propyl)-2-cyano-1H-indol-1-yl)propanoic acid] | 501 to 999 |
| Cc1cc(OCCCc2c(C#N)n(CC(=O)NS(C)(=O)=O)c3ccccc23)cc(C)c1Cl [Example 50, 2-(3-(3-(4-chloro-3,5-dimethylphenoxy)propyl)-2-cyano-1H-indol-1-yl)-N-(methylsulfonyl)acetamide] | 1000 to 9990 |
| Cc1cc(OCCn2cc(CC(=O)O)c3ccccc32)cc(C)c1Cl [Example 62, 2-(1-(2-(4-chloro-3,5-dimethylphenoxy)ethyl)-1H-indol-3-yl)acetic acid] | 1000 to 9990 |
